Measured values reported in patent US20120100184A1, “SYNTHESIS OF 1-AMINO-1,3,3,5,5,-CYCLOHEXANE MESYLATE” (MERZ PHARMA GmbH & CO.KGaA, priority 2009, published 2012).

Columns and labels:
[1] = mesylate of the prior art (Schweizer, Dissertation, page 200); cited from earlier work
[2] = Amount of solvent necessary to dissolve 1 g neramexane mesylate (re-crystallization step (iii)); assay type: physicochemical
Procedure: 20 ml cumene are necessary to dissolve 1 g neramexane mesylate at 104° C. The mixture is cooled down to ambient temperature. The re-crystallized product is isolated via centrifugation. The obtained crystals are columnar.
22 ml methyl ethyl ketone are necessary to dissolve 1 g neramexane mesylate at 80° C. The mixture is cooled down to ambient temperature. The re-crystallized product is isolated via centrifugation. The obtained crystals have the form of plates in admixture with columnar crystals.
20 ml methyl isobutyl ketone are necessary to dissolve 1 g neramexane mesylate at 100° C. The mixture is cooled down to ambient temperature. The re-crystallized product is isolated via centrifugation. The obtained crystals are columnar.
23 ml n-butyl acetate are necessary to dissolve 1 g neramexane mesylate at 100° C. The mixture is cooled down to ambient temperature. The re-crystallized product is isolated via centrifugation. The obtained crystals are columnar.
10 ml anisole are necessary to dissolve 1 g neramexane mesylate at 87° C. The mixture is cooled down to ambient temperature. The re-crystallized product is isolated via centrifugation. The obtained crystals are columnar.
20 ml tetrahydrofurane are necessary to dissolve 1 g neramexane mesylate at 60° C. The mixture is cooled down to 57° C., where 5% by weight neramexane mesylate is added. Subsequently, the mixture is cooled down to ambient temperature. The re-crystallized product is isolated via centrifugation in a yield of 89%. The obtained crystals have the form of plates.
20 ml toluene are necessary to dissolve 1 g neramexane mesylate at 80° C. The mixture is cooled down to ambient temperature. The re-crystallized product is isolated via centrifugation.
100 ml of the mixture of acetone and water are necessary to dissolve 1 g neramexane mesylate at 40° C. The mixture is cooled down to ambient temperature. The re-crystallized product is isolated via centrifugation in a yield of 66%.
55 ml of dichloromethane are necessary to dissolve 1 g neramexane mesylate at 40° C. The mixture is cooled down to ambient temperature. The re-crystallized product is isolated via centrifugation in a yield of 87%.

[3] = Particle size distribution of neramexane mesylate crystals by laser diffraction; assay type: physicochemical; conditions: for d(10) / d(50) / d(90): Example 17, re-crystallized from anisole; for PSD d(10) / PSD d(50) / PSD d(90): re-crystallization step (iii) and seeding step (iv)
Procedure: The particle size is determined according to the known methods employing laser diffraction as already mentioned above, and determining the distribution modal sizes.
Particle size distribution ranges as determined by laser diffraction with mesylates obtained in anisole, cumene, methyl ethyl ketone, methyl isobutyl ketone and n-butyl acetate by performing at least re-crystallization step (iii) and seeding step (iv) are disclosed in the following table:
The crystals obtained in the process of Example 1 are analysed regarding the crystal size and size distribution. A commercial Malvern Mastersizer 2000 is employed. The samples are dispersed in rapeseed oil.

[4] = Example 3, anisole, 5% by weight seeds added
[5] = crystals of Example 1 (anisole, no seeds), Malvern Mastersizer 2000, dispersed in rapeseed oil
[6] = obtained in methyl ethyl ketone
[7] = obtained in methyl isobutyl ketone

## CC1(C)CC(C)(C)CC(C)(N)C1.CS(=O)(=O)O [neramexane mesylate, 1-amino-1,3,3,5,5-pentamethylcyclohexane mesylate]
[1]
  particle population having a diameter of less than 10 μm: approximately 20 % by weight
[2]; anisole, 87° C.
  solvent necessary to dissolve 1 g neramexane mesylate: 10 mL
[2]; cumene, 104° C.
  solvent necessary to dissolve 1 g neramexane mesylate: 20 mL
[2]; dichloromethane, 40° C. (comparison)
  solvent necessary to dissolve 1 g neramexane mesylate: 55 mL
[2]; methyl ethyl ketone, 80° C.
  solvent necessary to dissolve 1 g neramexane mesylate: 22 mL
[2]; methyl isobutyl ketone, 100° C.
  solvent necessary to dissolve 1 g neramexane mesylate: 20 mL
[2]; mixture of acetone/water 99/1 (volume/volume), 40° C. (comparison)
  solvent necessary to dissolve 1 g neramexane mesylate: 100 mL
[2]; n-butyl acetate, 100° C.
  solvent necessary to dissolve 1 g neramexane mesylate: 23 mL
[2]; tetrahydrofurane, 60° C.
  solvent necessary to dissolve 1 g neramexane mesylate: 20 mL
[2]; toluene, 80° C. (comparison)
  solvent necessary to dissolve 1 g neramexane mesylate: 20 mL
[3]; [4]
  Particle size Distribution d(10): 15 μm
  Particle size Distribution d(50): 74 μm
  Particle size Distribution d(90): 184 μm
[3]; Example 17, anisole, 1%, 2.5%, 5% and 7.5% seeds, respectively
  amount of particulate matter (particles having a diameter of 10 μm and less): below 5 % by weight
[3]; 1% seeds
  d(10): 69 μm
  d(50): 181 μm
  d(90): 377 μm
[3]; 2.5% seeds
  d(10): 36 μm
  d(50): 119 μm
  d(90): 330 μm
[3]; 5% seeds
  d(10): 24 μm
  d(50): 86 μm
  d(90): 215 μm
[3]; 7.5% seeds
  d(10): 21 μm
  d(50): 76 μm
  d(90): 243 μm
[3]; crystals of Example 1 (anisole, no seeds)
  total amount of particles having a particle size of 10 μm and less: less than 1 % by weight
[3]; [5]
  Particle size Distribution d(10): 52.3 μm
  Particle size Distribution d(50): 129.4 μm
  Particle size Distribution d(90): 264.5 μm
[3]; obtained in anisole
  PSD d(10): 15 μm
  PSD d(50): 74 μm
  PSD d(90): 184 μm
[3]; obtained in cumene
  PSD d(10): 12 μm
  PSD d(50): 62 μm
  PSD d(90): 152 μm
[3]; [6]
  PSD d(10): 5 μm
  PSD d(50): 79 μm
  PSD d(90): 210 μm
[3]; [7]
  PSD d(10): 11 μm
  PSD d(50): 57 μm
  PSD d(90): 137 μm
[3]; obtained in n-butyl acetate
  PSD d(10): 12 μm
  PSD d(50): 58 μm
  PSD d(90): 136 μm
